Assay results as given in patent publication US9173878B2, “Brain function improving agent” (Tohoku University, priority 2012, dated 2015).
Where a name gives a salt, the structure may show the parent alone. Values belong to the compound of their own block, whether it stands above or below them.

Experiments:
Alzheimer's disease = conditions: treating Alzheimer's disease; cited from earlier work
CaMKII [1] = experiment: CaMKII self-phosphorylation (activation) in cultured mouse cerebral cortex cell, immunoblot; assay type: cell-based; conditions: 100 pM, 30 minutes of incubation
Procedure: The above frozen mouse brain slice segment (hippocampus CA1 region) is used for homogenization on ice by adding 150 μL homogenizing buffer (50 mM Tris-HCl pH 7.5, 0.5% Triton X-100, 4 mM EGTA, 0.5 M NaCl, 10 mM EDTA, 1 mM Na3VO4, 30 mM sodium pyrophosphate, 50 mM NaF, 1 mM DTT, 100 nM calyculin A, 50 μg/mL leupeptin, 25 μg/mL pepstatin A, 50 μg/mL trypsin inhibitor) per sample. Then, centrifugation was performed using a refrigerated centrifuge (14,000×g, 10 minutes, 4° C.), after which 100 μL of supernatant was collected and 20 μL of 6× Laemmli buffer was added to the supernatant to be boiled at 100° C. for 3 minutes, to form an immunoblotting sample. The protein concentration was measured by the Bradford method using a part of the supernatant. Reagants containing the same amount of protein were added to 10% SDS-polyacrylamido electrophoresis gel (SDS-PAGE gel), and SDS-PAGE was performed at 80 mA per 1 sheet of gel for 180 minutes. After separation by electrophoresis, transcription to a PVDF membrane was performed at 70 V for 120 minutes. […] After washing with a TTBS solution, ECL detection system (GE healthcare) was used to induce luminescence of HRP that labels the second antibody, and the X-ray film (Fuji Medical X-ray Film, Fuji Film) was sensitized to detect the band. An NIH image analysis software was used for a quantification analysis of the immunoreaction product.
The dispersion cultivation of a mouse cerebral cortex cell was performed by a previously reported method (Fukunaga et al., J. Biol. Chem. 267, 22527-22533, 1992). […] The frozen cerebral cortex cells were subjected to quantification analysis of the activation state (self-phosphorylation reaction) of CaMKII by the immunoblotting method after homogenization, similarly to the method in Test Example 2.

[2] = tested on: mouse hippocampus CA1 region; experiment: Long-term potentiation of synaptic transmission (LTP), fEPSP in hippocampus slice; assay type: cell-based; conditions: 100 pM in artificial cerebrospinal fluid
Procedure: (§1) The brain of a male mouse C57BL/6 (10-12 weeks old) was sagitally sectioned, then a coronal section brain slice (400 μm) including a hippocampus CA1 region was prepared. The hippocampus slice was recovered in an artificial cerebrospinal fluid (126 mM NaCl, 5 mM KCl, 26 mM NaHCO3, 1.3 mM MgSO4-7H2O, 1.26 mM KH2PO4, 2.4 mM CaCl2-2H2O, 10 mM glucose) saturated by a 95% O2/5% CO2 gas at 34° C. for 2 hours. The hippocampus slice was transferred to a measurement chamber, and ST101 (100 pM), SAK1 (100 pM), SAK3 (100 pM) were added to the artificial cerebrospinal fluid, and perfused. Then, the Schaffer branch to be input to the hippocampus CA1 region and the commissural fibers were stimulated by stimulus electrodes, and the postsynaptic potential (fEPSP; field excitatory postsynaptic potential) in the CA1 region induced thereby was measured. After measurement, just the hippocampus CA1 region was sliced from the slice segment, and frozen for preservation at −80° C. for measurement with immunoblotting.

CaMKII [3] = experiment: CaMKII self-phosphorylation (activation) in hippocampus CA1 region, immunoblot; assay type: cell-based, mouse; conditions: hippocampus CA1 region 60 minutes after LTP, 100 pM
Procedure: as §1, with “After measurement, just the hippocampus CA1 region was sliced from the slice segment, and frozen for preservation at −80° C. for measurement with immunoblotting.” left out
The above frozen mouse brain slice segment (hippocampus CA1 region) is used for homogenization on ice by adding 150 μL homogenizing buffer (50 mM Tris-HCl pH 7.5, 0.5% Triton X-100, 4 mM EGTA, 0.5 M NaCl, 10 mM EDTA, 1 mM Na3VO4, 30 mM sodium pyrophosphate, 50 mM NaF, 1 mM DTT, 100 nM calyculin A, 50 μg/mL leupeptin, 25 μg/mL pepstatin A, 50 μg/mL trypsin inhibitor) per sample. […] The protein concentration was measured by the Bradford method using a part of the supernatant. […]

[4] = tested on: non-transfected mouse neuroblastoma cell line Neuro2A; experiment: Calcium imaging (Fura-2) in T-type calcium channel non-expressing Neuro2A cells; assay type: cell-based
Procedure: (§2) The cells of mouse neuroblastoma cell line Neuro2A were purchased from the Human Science Research Resources Bank (#IFO50081, Osaka, Japan). […] Then, the Neuro2A cells were seeded to a glass bottom dish at a concentration of 1 to 2×10^6 cell/φ35-mm dish, and cultivated for 24 hours in a standard culture medium, and the cells were transfected using Lipofectamine 2000 (Invitrogen, Carsbad, Calif., USA) and using a plasmid vector containing a T-type calcium channel (Cav 3.1) genes (serum-free culture of Lipofectamine 2000: DNA=1 μl: 1 μg, 1.5 ml). The T-type calcium channel (Cav 3.1) gene, the plasmid vector pCMV-SPORT6, and the Lipofectamine 2000 were respectively purchased from OriGene Technologies, Inc., Thermo Fisher Scientific Ltd., and Invitrogen, and the transfection was performed according to the protocol attached to Lipofectamine 2000 other than the rate adjustment of the Lipofectamine 2000 and plasmid vector. The serum-free culture was replaced with a standard culture 6 hours after transfect, and calcium imaging (calcium concentration measurement) was performed after Cav 3.1 expression was confirmed after 48 hours of culture. T-type calcium channel expressing Neuor2A cells were dispersed in a glass bottom dish, and 2.5 μM of Fura-2-AM (Sigma, St Louis, Mo., USA) was added to the dish in perfusion (Krebs-Hepes buffer; KRH), then the dish was incubated at 37° C. for 30 minutes. A Fura-2-AM-free KRH was replaced with perfusion, and the Neuro2A cells were stimulized with SAK3 (100 pM) as the intracellular calcium was measured with a fluorescent microscope, then the cells were further stimulized with nicotin (1 μM), ATP (0.1 μM), DHPG (20 μM), as necessary.

[5] = target: T1, T-type calcium channel (Cav 3.1) (Homo sapiens, UniProt O43497); experiment: Calcium imaging (Fura-2) in Cav 3.1 gene-transfected Neuro2A cells; assay type: cell-based, mouse; conditions: for change in calcium concentration after SAK3 addition: Cav3.1 expressing cells
T1 construct: Thermo Fisher Scientific Ltd. (vector pCMV-SPORT6); host or cells: mouse neuroblastoma cell line Neuro2A, transient transfection with Lipofectamine 2000
Procedure: as §2

[6] = tested on: olfactolectomy mouse (OBX mouse); experiment: Y maze test in olfactolectomized (OBX) mouse; assay type: in vivo; conditions: 1 mg/kg administered into the abdominal, 30 minutes before test
Procedure: (§3) A 10 weeks old DDY male mouse (Nippon SLC, Hamamatsu, Japan) was used in the experiment. The animal was bred in an animal experiment facility in the Pharmaceutical Research Department of the Tohoku University Graduate School under a certain condition (temperature 22±2° C., 12 h: 12 h light-dark cycle) by freely providing water and a feed. Note that the handling of animals and animal experiments in the present paper was performed with an approval of Tohoku University Experimental Animal Committee and under the Tohoku University Animal Experiment Guideline.
(§4) An olfactolectomy mouse (OBX mouse) was prepared using a DDY male mouse. The olfactolectomy operation was performed under the condition of anesthesia by pentobarbital sodium (50 mg/kg i.p.; Dainippon, Osaka, Japan). […]
Y maze test: A Y maze test was performed to assess the spontaneous action amount and the spatial activity memory of a mouse. The mouse was place at the end of one of the arms in the Y maze and allowed to freely explore the maze for 8 minutes, then the positions of the arms that the mouse travelled were recorded in the order of selection. The number of times that the mouse travelled to each arm in the time of measurement was counted as total arm entries. Further, the combinations of consecutively selecting 3 different arms were counted as No. of alternation. […]

[7] = tested on: olfactolectomy mouse (OBX mouse); experiment: Novel object recognition test in olfactolectomized (OBX) mouse; assay type: in vivo; conditions: 1 mg/kg administered into the abdominal, 30 minutes before test
Procedure: as §3
as §4, with “Japan). The mouse was fixed to a brain brace, and the skull bone above the olfactory bulb was drilled to open a hole of 1 mm diameter.” for “Japan).”
Novel object recognition test: The present test uses a mouse's characteristic of preferring novel objects, and the mouse was allowed to freely explore the device in which 2 objects are placed for 10 minutes (training session). […] The numbers of contacts for the 2 objects in the training session and the trial session were measured. The percentage (%) of the number of contacts of the novel object against the number of total contacts in the trial session was calculated as the Discrimination index.

[8] = tested on: olfactolectomy mouse (OBX mouse); experiment: Acetylcholine liberation in hippocampus by microdialysis; assay type: in vivo
Procedure: The amount of acetylcholine liberated in hippocampus is measured by the microdialysis method. The set up of guide cannula and dialysis probe (AG-4; Eicom, Kyoto, Japan) was conducted by fixing the mouse to the brain stereotaxis apparatus under the condition of maintaining anesthesia by 1.5% halothane (Takeda Chemical Industries Ltd., Osaka, Japan), setting up a guide cannula to the left hippocampus (AP=+3. L=+3, V=-1.8), and inserting a dialysis probe to the guide cannula. The collection of a intracerebral Ach sample from a mouse hippocampus was performed a day after the probe set up operation. After the recovery of the mouse from the operation was confirmed, the probe was connected to a micropump (ESP-64; Eicom) under an unanesthetized state and free activity, and a Ringer's solution (1.3 mM CaCl2. 3 mM KCl, 146 mM NaCl and 1 mM MgSO4) was introduced at a flow rate of 2 μL per minute. The dialysis sample was collected every 19.5 minutes and inserted to the acetylcholine separation column using an autoinjector (EAS-20, Eicom), and a system for a trace element analysis of biological samples (HTEC-500; Eicom) was used for analysis. SAK3 was intraperitoneally administered at 40 minutes before test (at the -40 minutes point in the graph of FIG. 8). […]

T1 sequence (O43497 whole entry): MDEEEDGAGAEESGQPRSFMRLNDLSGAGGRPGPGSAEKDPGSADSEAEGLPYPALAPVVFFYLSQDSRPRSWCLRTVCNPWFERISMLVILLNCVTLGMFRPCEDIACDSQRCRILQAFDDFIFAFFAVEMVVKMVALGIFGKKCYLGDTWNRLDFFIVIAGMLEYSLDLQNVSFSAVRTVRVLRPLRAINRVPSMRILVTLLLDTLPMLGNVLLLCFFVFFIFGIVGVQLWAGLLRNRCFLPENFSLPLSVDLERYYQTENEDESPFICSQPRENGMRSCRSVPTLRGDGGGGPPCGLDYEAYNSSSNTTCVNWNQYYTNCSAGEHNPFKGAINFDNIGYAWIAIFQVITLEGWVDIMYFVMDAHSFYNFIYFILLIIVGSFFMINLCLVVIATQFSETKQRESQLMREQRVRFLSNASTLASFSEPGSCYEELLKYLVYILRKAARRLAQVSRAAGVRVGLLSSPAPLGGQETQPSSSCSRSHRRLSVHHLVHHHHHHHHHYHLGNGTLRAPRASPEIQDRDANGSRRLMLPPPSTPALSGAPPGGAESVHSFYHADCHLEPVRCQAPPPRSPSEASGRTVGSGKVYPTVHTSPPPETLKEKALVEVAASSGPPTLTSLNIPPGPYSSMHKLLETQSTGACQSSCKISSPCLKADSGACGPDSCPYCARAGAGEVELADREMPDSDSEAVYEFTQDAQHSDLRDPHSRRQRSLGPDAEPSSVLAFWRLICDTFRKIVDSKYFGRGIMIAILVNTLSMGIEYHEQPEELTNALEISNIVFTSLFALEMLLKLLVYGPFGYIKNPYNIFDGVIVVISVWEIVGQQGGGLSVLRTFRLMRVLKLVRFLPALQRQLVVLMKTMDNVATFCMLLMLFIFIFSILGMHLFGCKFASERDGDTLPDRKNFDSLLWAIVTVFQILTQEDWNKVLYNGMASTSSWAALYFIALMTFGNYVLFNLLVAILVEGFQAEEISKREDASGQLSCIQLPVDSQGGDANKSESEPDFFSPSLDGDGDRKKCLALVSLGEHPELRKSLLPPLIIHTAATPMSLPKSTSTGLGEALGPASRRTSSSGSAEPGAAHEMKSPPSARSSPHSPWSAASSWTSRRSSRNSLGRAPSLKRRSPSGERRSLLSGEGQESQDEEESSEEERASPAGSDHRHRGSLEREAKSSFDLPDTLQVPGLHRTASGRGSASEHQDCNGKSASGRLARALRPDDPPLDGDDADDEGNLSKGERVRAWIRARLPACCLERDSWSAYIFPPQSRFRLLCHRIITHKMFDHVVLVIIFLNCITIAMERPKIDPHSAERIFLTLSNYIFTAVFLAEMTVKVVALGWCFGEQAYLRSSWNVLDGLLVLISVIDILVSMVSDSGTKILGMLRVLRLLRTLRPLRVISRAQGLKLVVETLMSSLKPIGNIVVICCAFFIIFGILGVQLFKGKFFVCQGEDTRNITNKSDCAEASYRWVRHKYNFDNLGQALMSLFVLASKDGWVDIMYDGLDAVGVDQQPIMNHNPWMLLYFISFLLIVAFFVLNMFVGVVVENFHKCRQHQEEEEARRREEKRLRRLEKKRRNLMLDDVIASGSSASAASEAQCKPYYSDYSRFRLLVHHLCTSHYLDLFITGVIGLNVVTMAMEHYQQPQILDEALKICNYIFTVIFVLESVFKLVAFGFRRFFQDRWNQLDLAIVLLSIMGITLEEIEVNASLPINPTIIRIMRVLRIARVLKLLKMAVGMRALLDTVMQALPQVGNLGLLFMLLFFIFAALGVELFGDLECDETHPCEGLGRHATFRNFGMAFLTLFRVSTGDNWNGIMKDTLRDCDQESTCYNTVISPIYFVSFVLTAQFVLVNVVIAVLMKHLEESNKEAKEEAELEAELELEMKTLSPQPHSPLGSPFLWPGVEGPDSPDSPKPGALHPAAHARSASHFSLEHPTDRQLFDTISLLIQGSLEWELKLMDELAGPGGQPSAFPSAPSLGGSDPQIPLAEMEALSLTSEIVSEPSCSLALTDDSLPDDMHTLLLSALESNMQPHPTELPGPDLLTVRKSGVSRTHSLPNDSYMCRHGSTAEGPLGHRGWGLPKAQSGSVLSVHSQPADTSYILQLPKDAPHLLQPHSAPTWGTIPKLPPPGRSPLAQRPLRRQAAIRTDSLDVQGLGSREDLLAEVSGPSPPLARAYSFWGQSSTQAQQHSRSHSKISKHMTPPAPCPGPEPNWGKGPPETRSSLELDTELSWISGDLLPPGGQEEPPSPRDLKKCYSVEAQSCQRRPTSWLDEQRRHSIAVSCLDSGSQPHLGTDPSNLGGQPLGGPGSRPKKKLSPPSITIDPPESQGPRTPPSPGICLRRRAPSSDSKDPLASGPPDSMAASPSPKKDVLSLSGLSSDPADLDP

SMILES: COc1cc2c(cc1OC)C(=O)C(CC1CCN(Cc3ccccc3)CC1)C2 (stereo not shown) [Donepezil hydrochloride]
efficacy ratio of the clinical result (Alzheimer's disease): about 50%

SMILES: CCOC(=O)C1=C(N2CCCCC2)C2(CC1=O)C(=O)N=C1C=CC=CN12 (stereo not shown) [SAK8]
phosphorylated CaMKII / activation of CaMKII (CaMKII [1]): increased phosphorylated CaMKII

amount of influent calcium ion induced by adding ATP ([5]; ATP 0.1 μM, under the presence of SAK3 100 pM, transfected cells): not potentiated
increase in amount of influent calcium ion induced by SAK3 ([5]; Cav3.1 transfected cells, addition of mibefradil (10 μM)): nearly cancelled out
amount of influent calcium ion induced by adding DHPG ([5]; DHPG 20 μM, under the presence of SAK3 100 pM, transfected cells): not potentiated
activation of T-type voltage dependent calcium channel relative to ST101 ([5]; compared with ST101): ≥ 10 folds
increase of the amount of influent calcium ion induced by nicotin under the presence of SAK3, transfected cells relative to non-transfected cells ([5]; nicotin 1 μM, SAK3 100 pM): 2 folds
effect of SAK3 on amount of influent calcium ion induced by nicotin ([5]; nicotin 1 μM, mibefradil (10 μM) added): cancelled out
SMILES: CCOC(=O)C1=C(N2CCCCC2)C2(CC1=O)C(=O)N=C1C(C)=CC=CN12 (stereo not shown) [SAK3]
LTP potentiation effect [2]: a strong potentiation effect was observed
phosphorylated CaMKII / CaMKII activation (CaMKII [3]): an increase of phosphorylated CaMKII and a potentiation of CaMKII activation were confirmed
change in calcium concentration after SAK3 addition ([4]; Cav3.1 non-expressing cell, SAK3 100 pM): there was no change in the calcium concentration
amount of intracellular influent calcium ion induced by SAK3 ([4]; Cav3.1 non-transfected cells, SAK3 100 pM): do not show the change in the amount of influent calcium ion
change in calcium concentration after SAK3 addition ([5]; SAK3 100 pM): An increase in calcium concentration was confirmed
change in calcium concentration after SAK3 addition ([5]; SAK3 100 pM, mibefradil (10 μM) added): no increase in calcium concentration by SAK3 was confirmed
amount of intracellular influent calcium ion induced by SAK3 ([5]; Cav3.1 transfected cells, SAK3 100 pM): showed an increase in the amount of influent calcium ion
improvement of cognitive dysfunction by olfactolectomy (Y maze test) [6]: almost completely improved
improvement of cognitive dysfunction by olfactolectomy (novel object recognition test) [7]: almost completely improved
amount of acetylcholine liberated by nicotine in hippocampus ([8]; 1.0 mg/kg administration group, compared with Sham group): above that of the Sham group
amount of acetylcholine liberated by nicotine in hippocampus ([8]; intraperitoneal, 40 minutes before test, versus group without SAK3): increased
phosphorylated CaMKII / activation of CaMKII (CaMKII [1]): increased phosphorylated CaMKII

SMILES: CN1CCCC1c1cccnc1 (stereo not shown) [nicotin, reference compound]
change in calcium concentration after adding nicotin ([4]; Cav3.1 non-expressing cell, nicotin 1 μM): an increase in the calcium concentration after adding nicotin was confirmed

SMILES: O=C1N=C2C=CC=CN2C12Cc1ccccc1C2 [ST101, reference compound]
LTP potentiation effect [2]: does not show a strong LTP potentiation effect

SMILES: CCOC(=O)C1=C(N2CCCCC2)C2(CC1=O)C(=O)N=C1C(C)=CC(C)=CN12 (stereo not shown) [SAK9]
phosphorylated CaMKII / activation of CaMKII (CaMKII [1]): increased phosphorylated CaMKII

SMILES: CCOC(=O)C1=C(SC)C2(CC1=O)C(=O)N=C1C=CC=CN12 (stereo not shown) [SAK1]
LTP potentiation effect [2]: a strong potentiation effect was observed
phosphorylated CaMKII / CaMKII activation (CaMKII [3]): an increase of phosphorylated CaMKII and a potentiation of CaMKII activation were confirmed
